Measured values reported in PubChem BioAssay (NCI).
Values joined by “and” are separate entries in the source; they are usually repeats but may differ in a detail not shown here. Identical values can stand only once.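 Tested at 5 concentrations; 48 h exposure; 96-well plates; endpoints linearly interpolated, else capped at highest concentration. The concentration for 50% growth inhibition is given as GI50. At the TGI there is no net growth.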

Assays:
Assay in all cases: growth of human tumour cells (NCI), 48 h
SK-MEL-5 melanoma = tested on: SK-MEL-5 melanoma
MOLT-4 leukemia = tested on: MOLT-4 leukemia
U251 CNS = tested on: U251 CNS
SK-MEL-2 melanoma = tested on: SK-MEL-2 melanoma
SF-268 CNS = tested on: SF-268 CNS
SK-MEL-28 melanoma = tested on: SK-MEL-28 melanoma
A498 renal = tested on: A498 renal
CAKI-1 renal = tested on: CAKI-1 renal
SNB-75 CNS = tested on: SNB-75 CNS
MALME-3M melanoma = tested on: MALME-3M melanoma

Compound	GI50 (SK-MEL-5 melanoma) [µM]	TGI (SK-MEL-5 melanoma) [µM]	GI50 (MOLT-4 leukemia) [µM]	TGI (MOLT-4 leukemia) [µM]	GI50 (U251 CNS) [nM]	TGI (U251 CNS) [µM]	GI50 (SK-MEL-2 melanoma) [µM]	TGI (SK-MEL-2 melanoma) [µM]	GI50 (SF-268 CNS) [µM]	TGI (SF-268 CNS) [µM]	GI50 (SK-MEL-28 melanoma) [µM]	TGI (SK-MEL-28 melanoma) [µM]	GI50 (A498 renal) [µM]	TGI (A498 renal) [µM]	GI50 (CAKI-1 renal) [µM]	TGI (CAKI-1 renal) [µM]	TGI (SNB-75 CNS)	TGI (MALME-3M melanoma) [µM]	GI50 (MALME-3M melanoma) [µM]	GI50 (SNB-75 CNS) [µM]
Clc1ccc(-c2csc(Nc3cccc(-c4csc(-c5ccccc5)n4)c3)n2)cc1	8.95	18.9	19.5	> 50	7390	14.1	10.6	26.1	8.68	19.6	5.93	15.6	15.9	28.3	9.77	25.6				
O=S(=O)(O)c1ccc(N=Nc2nc(C(F)(F)F)c(C(F)(F)F)[nH]2)cc1		> 100		> 100		> 100		> 100		> 100		36.2				89.4	> 100 µM	> 100		
CC(=O)N1N=C(c2ccc(Nc3ccnc4cc(Cl)ccc34)cc2)CC1c1ccc(Cl)cc1 (stereo unspecified)	2.2	16	2.42	> 100	> 100000	> 100	> 100	> 100	9.1	> 100	4.88	> 100	> 100	> 100	> 100	> 100				
CN(C)C(=Nc1nc(=[N+](C)C)ss1)N(C)C		> 100		> 100		> 100		> 100		> 100		> 100		> 100		> 100	> 100 µM			
O=[N+]([O-])c1ccc(C2CC(c3ccccc3Cl)=Nc3ccccc3S2=O)cc1 (stereo unspecified)		14.2		7.47				51.7		30.5		13.8		6.03		4.33	21.4 µM	32		
COC(=O)C1=C(c2ccc(OC)c(OC)c2)OC(c2cc(OC)c(OC)c(OC)c2)C1 (stereo unspecified)		> 100				> 100		> 100		> 100		> 100		63		> 100	25.6 µM	> 100		
C=C1C(=O)O[C@H]2[C@H]1CC/C(COC(=O)CCSCCC(=O)OC/C1=C/CC[C@@]3(C)O[C@H]3[C@H]3OC(=O)C(=C)[C@@H]3CC1)=C\CC[C@@]1(C)O[C@@H]21	1.64	3.14	0.422	2.12	1390	3.45	2.18	4.88	1.63	4.54	1.39	2.86	1.7	4.78	1.62	3.12		2.73	1.12	
Cc1cn(C2C=CC(CO)O2)c(=O)[nH]c1=O (stereo unspecified)		> 1000		> 1000		> 1000		> 1000		> 1000						> 1000	> 1000 µM	> 1000		
CC(=O)NC1C(OCc2ccccc2)OC(CO)C(O)C1OC(C)C(=O)N[C@@H](C)C(=O)N[C@H](CCC(=O)OCCNc1c2ccccc2nc2cccc([N+](=O)[O-])c12)C(N)=O (stereo partly specified)		0.00855		> 0.1				0.00414		0.0343		0.0118		0.0199			0.0405 µM and 0.00887 µM	0.00356		
C[N+](C)(C)CC1CCC/C1=N/O (stereo unspecified)		> 100		> 100		> 100		> 100		> 100		> 100		> 100			> 100 µM	> 100		
CCOC(=O)c1c(C)n(Cc2ccccc2)c2c1cc(O)c1[nH]c(Cc3ccccc3)nc12	9.89	39.1			7460	33	26.7	> 100	13.8	> 100	24.3	> 100	28.5	> 86.1	7.77	21.8	42.3 µM	58	9.93	8.04
CCC(c1ccc(OC)cc1)C(CC)c1ccc(O)c(CN2CCN(C)CC2)c1 (stereo unspecified)	1.69	3.22	6.01	20.4	2730	12.2	2.85	6.46	7.66	21.5	2.16	4.23	4.13	16.1	2.61	10.6	23 µM			10
COC(=O)C(=CNC(N)=O)C(=O)OC		> 100		> 100				> 100		> 100		> 100				> 100				
O=C(CC1(O)C(=O)Nc2ccc(Br)cc21)c1ccc(Cl)cc1Cl (stereo unspecified)				68		> 100		> 100		> 100		> 100		> 100			> 100 µM	> 100		
CS(=O)(=O)NNS(=O)(=O)c1ccccc1		> 100		> 100		> 100		> 100		> 100				> 100		> 100	> 100 µM	> 100		
CCCCCCCCCCCCCCCCNCCCN(C)CCCN		31.4		94.1		31.8		41.8		34.9		26.6		34		35.8	34.2 µM			
COc1cc(-c2cc(-c3ccc(Nc4ccnc5cc(Cl)ccc45)cc3)nc(N3CCOCC3)n2)cc(OC)c1OC	3.5	> 100	2.58	9.2	1620	3.12	11.8	48	2.04	5.7	1.98	3.93	28.2	74.4			3.44 µM	3.97	1.86	1.65
COc1cccc(CSCC(=O)O)c1		> 100				> 100		> 100		> 100		> 100		> 100		> 100	> 100 µM	> 100		
Cc1cc(S(=O)(=O)/N=C/N(C)C)c(SC(=O)c2ccc(Cl)cc2)cc1Cl	10.8	36.5	61	> 100	27000	71.1	45.8	> 100	50.8	> 100	48.9	> 100			36.6	92.3				
COC(=O)CCC1CCc2c(OC)ccc(OC)c2C1=O (stereo unspecified)		> 100		> 100		> 100		> 100		> 100		> 100					> 100 µM	> 100		

Compound	GI50 (SK-MEL-5 melanoma) [µM]	TGI (SK-MEL-5 melanoma) [µM]	GI50 (MOLT-4 leukemia) [µM]	TGI (MOLT-4 leukemia) [µM]	GI50 (U251 CNS) [nM]	TGI (U251 CNS) [µM]	GI50 (SK-MEL-2 melanoma) [µM]	TGI (SK-MEL-2 melanoma) [µM]	GI50 (SF-268 CNS) [µM]	TGI (SF-268 CNS) [µM]	GI50 (SK-MEL-28 melanoma) [µM]	TGI (SK-MEL-28 melanoma) [µM]	GI50 (A498 renal) [µM]	TGI (A498 renal) [µM]	GI50 (CAKI-1 renal) [µM]	TGI (CAKI-1 renal) [µM]	TGI (SNB-75 CNS)	TGI (MALME-3M melanoma) [µM]	GI50 (MALME-3M melanoma) [µM]	GI50 (SNB-75 CNS) [µM]
O=C(CCC(=O)Nc1ccc(Cl)c(Cl)c1)CC(=O)c1ccc(F)cc1		> 100		> 100		> 100				> 100		> 100				> 100		> 100		
O=C(O)C1CC2(C1)CC(C(=O)O)C2 (stereo unspecified)		> 100		> 100		> 100		> 100				> 100		> 100		> 100	> 100 µM	> 100		
COc1cccc2c1-c1c(c3ccc([N+](=O)[O-])cc3c(=O)n1CCCN)C2=O	1.91	7.38	0.0293	0.34	1020	2.23	1.58	3	1.15	2.94	1.86	3.81	15.7	32.8	15.1	62.7	25.1 µM			5.76
O=[N+]([O-])c1ccc(-c2noc(-c3ccc(Cl)cc3)c2C2=NCCN2)cc1		> 100		> 100		> 100		> 100		> 100		> 100				> 100		> 100		
ON(Cc1ccccc1)C(=S)c1ccccc1		> 100		> 41		61		> 100		> 100		> 100		> 100			> 100 µM	> 100		
COC(=O)/C(=N/Nc1cccc(Cl)c1)C(C(=O)C(=O)Nc1cccc(Cl)c1C)c1nc2ccccc2nc1C (stereo unspecified)		> 100		> 100				> 100		> 100		> 100		> 100		> 100		> 100		
Cc1cc(-c2ccccc2)nc(Nc2nc3ccccc3o2)n1		> 100		> 100		> 100		> 100		> 100		> 100		> 100		> 100		> 100		
O=C(CSc1ncn[nH]1)C[P+](c1ccccc1)(c1ccccc1)c1ccccc1		> 100		> 100				> 100		> 100		> 100				> 100	> 100 µM	> 100		
Cc1cc(Nc2nc(-c3cccnc3)nc3ccccc23)n[nH]1	4	> 63.6	> 57.2	> 100	1250	> 53.1			2.47	> 67.2	10.1	> 100	0.183	0.985	0.325		2.18 µM	> 100	> 100	0.3
Nc1cc(O)ccc1N=Nc1ccc(-c2nc3ccccc3[nH]2)cc1	38.8	> 100	> 100	> 100	30300	> 100	45.1	> 100	3.07	22.8	34.8	> 100			3.51	82.3	> 100 µM			> 100
CC(=O)c1c(CN(C)c2ccccc2)n([O-])c2ccccc2[n+]1=O	16	42.4	23.9	> 100	29700	> 100	> 100	> 100	24.1	79.9	38.7	> 100	28.1	> 100			> 100 µM	87.2	23.9	53
COc1ccc2c(c1)CC[C@@H]1[C@@H]2CC[C@]2(C)[C@@H](NC(=O)/C=C/c3ccc(O)c(O)c3)CC[C@@H]12	3.86	16.4			2880	11.2	2.77	11.7	2.66	11	18.5	> 100	14.3	31.1	2.03	4.09	> 100 µM	25.9	11.2	21.9
COC(=O)C1OC2(CCCC3CC32)O[C@H]1C(=O)OC (stereo partly specified)				> 100		> 100		> 100		> 100		> 100				> 100	> 100 µM	> 100		
Oc1ccc(O)c(-c2cc(-c3ccc(Cl)cc3)nn2-c2ccccc2)c1	10.1	28.8	3.3	> 100			23.4	> 100	2.71	12.2			0.755	13.8	18.8	39.6				
CCn1c(SC(C)C(=O)c2c(C)n(C)n(-c3ccccc3)c2=O)nc2ccccc2c1=O (stereo unspecified)		> 100		> 100		> 100		> 100		> 100		> 100		> 100			> 100 µM	> 100		
Nc1c(O)cc(N=C2C(=O)C=CC=C2C(=O)O)c(O)c1C(=O)O		> 100		> 100		> 100		> 91.2				> 41.3		> 100		> 100	> 100 µM	> 57.4		
CN(COC(=O)c1ccccc1)c1nc(N(C)COC(=O)c2ccccc2)nc(N(C)COC(=O)c2ccccc2)n1		> 100		> 100		> 83.7				> 88.1		> 100		40.8		> 86.2	> 100 µM	> 100		
Cc1noc2c1C(=O)CCC2				> 100				> 100		> 100		> 100				> 100	> 100 µM	> 100		
Cc1nc2c(o1)C(=Nc1ccccc1)c1ccccc1C2=O		5.78		48.3		9.4		18.9		24				54.4		36.7	23.6 µM	12.3		
